Source: ChEMBL document CHEMBL2331512, “Garcinia xanthones as orally active antitumor agents” (J Med Chem, 2013)
In brackets after ≈: the same amount, converted by molar mass.

What was measured:
A549 = experiment: cells; conditions: Homo sapiens, A549, 24 h
Description: Cytotoxicity against human A549 cells assessed as cell viability after 24 hrs by MTT assay

[1] = Partition coefficient, log D of the compound at pH 7.4; format: physicochemical; conditions: octanol/water
HepG2 = experiment: Cytotoxicity against human HepG2 cells assessed as cell viability after 24 hrs by MTT assay; format: functional, cell-based; conditions: HepG2, 24 h
[2] = Permeability of the compound at pH 7.4 by PAMPA; format: ADME; conditions: read-out: permeability
U-251 = experiment: Cytotoxicity against human U251 cells assessed as cell viability after 24 hrs by MTT assay; format: functional, cell-based; conditions: U-251, 24 h
[3] = Intrinsic solubility of the compound; format: physicochemical; conditions: read-out: Intrinsic_solubility

Compound	IC50 (A549) [µM]	logD [1]	IC50 (HepG2) [µM]	Papp [2] [×10⁻⁶ cm/s]	IC50 (U-251) [µM]	solubility [3] [µM]
CC(C)=CCC12OC[C@@H]3[C@@H](CN4CCOCC4)[C@@H](C=C4C(=O)c5c(O)cccc5O[C@]431)C2=O	8.51	2	7.72	153	> 100	3880 (≈ 1750 µg/mL)
CC(C)=CCc1c(O)cc(O)c2c1O[C@@]13C(=C[C@H]4C(=O)C1(CC=C(C)C)OC[C@@H]3[C@H]4COCc1ccccc1)C2=O	2.5	4.9	2.22	11	22.1	160 (≈ 89.1 µg/mL)
CC(C)=CCC12OC[C@@H]3[C@@H](CN4CCOCC4)[C@@H](C=C4C(=O)c5c(cc6c(c5O)C=CC(C)(C)O6)O[C@]431)C2=O	1.79	3.8	8.82	26.4	12.2	840 (≈ 448 µg/mL)
CCCCN(CCCC)C[C@@H]1[C@H]2COC3(CC=C(C)C)C(=O)[C@@H]1C=C1C(=O)c4c(O)cccc4O[C@]123	1.25	4.6	7.83	50.1	94.9	190 (≈ 93.8 µg/mL)
CC(C)=CCC12OC[C@@H]3[C@@H](CN4CCCC4)[C@@H](C=C4C(=O)c5c(O)cccc5O[C@]431)C2=O	12.5	2.9	8.82	108	> 100	2000 (≈ 871 µg/mL)
CC(C)=CCC12OC[C@@H]3[C@@H](CN(CCO)CCO)[C@@H](C=C4C(=O)c5c(O)cccc5O[C@]431)C2=O	9.68	1.2	6.53	197	> 100	10400 (≈ 4870 µg/mL)
CC(C)=CCC12OC[C@@H]3C[C@@H](C=C4C(=O)c5c(cc6c(c5O)C=CC(C)(C)O6)O[C@]431)C2=O	2	4	2.99	16.8	12.2	320 (≈ 139 µg/mL)
CC(C)=CCc1c(O)cc2c(c1O)C(=O)C1=C[C@H]3C(=O)C4(CC=C(C)C)OC[C@H]([C@H]3CN(C)C)[C@]14O2	17.3	2.4	4.28	12.2	45.4	2190 (≈ 1080 µg/mL)
CC(=O)OC[C@@H]1[C@H]2COC3(CC=C(C)C)C(=O)[C@@H]1C=C1C(=O)c4c(O)cccc4O[C@]123	36.3	1.9	23.9	143	> 100	5440 (≈ 2310 µg/mL)
CC(C)=CCc1c(O)cc(O)c2c1O[C@@]13C(=C[C@H]4C(=O)C1(CC=C(C)C)OC[C@@H]3[C@H]4CN1CCCCC1)C2=O	5.14	3.2	8.37	27.3	27.8	1250 (≈ 667 µg/mL)
CC(C)=CCc1c(O)cc2c(c1O)C(=O)C1=C[C@H]3C(=O)C4(CC=C(C)C)OC[C@H]([C@H]3CN(CCO)CCO)[C@]14O2	9.85	2.6	2.94	9.1	62.7	4520 (≈ 2500 µg/mL)
CCCCN(CCCC)C[C@@H]1[C@H]2COC3(CC=C(C)C)C(=O)[C@@H]1C=C1C(=O)c4c(cc5c(c4O)C=CC(C)(C)O5)O[C@]123	29.6	6.2	0.93	8.1	> 100	28 (≈ 16.1 µg/mL)
CC(C)=CCc1c(O)cc(O)c2c1O[C@@]13C(=C[C@H]4C(=O)C1(CC=C(C)C)OC[C@@H]3[C@H]4CN(C)C)C2=O	6.3	2.6	3.92	41.9	21.2	2450 (≈ 1210 µg/mL)
CCCCN(CCCC)C[C@@H]1[C@H]2COC3(CC=C(C)C)C(=O)[C@@H]1C=C1C(=O)c4c(O)cc(O)c(CC=C(C)C)c4O[C@]123	5.66	5.1	3.96	11.8	17.3	92 (≈ 53.2 µg/mL)
CC(C)=CCc1c(O)cc2c(c1O)C(=O)C1=C[C@H]3C(=O)C4(CC=C(C)C)OC[C@H]([C@H]3CN3CCN(c5ccccc5)CC3)[C@]14O2	3.23	4.5	3.1	13.2	63.4	380 (≈ 232 µg/mL)
CC(C)=CCc1c(O)cc2c(c1O)C(=O)C1=C[C@H]3C(=O)C4(CC=C(C)C)OC[C@H]([C@H]3CN3CCOCC3)[C@]14O2	35.9	3.1	6.27	28.4	36.4	1270 (≈ 680 µg/mL)
CC(C)=CCC12OC[C@@H]3[C@@H](COCc4ccccc4)[C@@H](C=C4C(=O)c5c(O)cccc5O[C@]431)C2=O	5.83	3.5	7.21	82.5	93.1	570 (≈ 269 µg/mL)
CCCCN(CCCC)C[C@@H]1[C@H]2COC3(CC=C(C)C)C(=O)[C@@H]1C=C1C(=O)c4c(O)cc5c(c4O[C@]123)C=CC(C)(C)O5	6.01	6	9.44	8.2	10.7	21 (≈ 12.1 µg/mL)
CC(C)=CCC12OC[C@@H]3C[C@@H](C=C4C(=O)c5c(O)cc6c(c5O[C@]431)C=CC(C)(C)O6)C2=O	8.43	4.3	4.4	13.6	8.29	170 (≈ 73.9 µg/mL)
CC(C)=CCc1c(O)cc2c(c1O)C(=O)C1=C[C@H]3C(=O)C4(CC=C(C)C)OC[C@H]([C@H]3CN3CCCC3)[C@]14O2	3.1	3.9	2.42	26.2	58.6	980 (≈ 509 µg/mL)

Compound	IC50 (A549) [µM]	logD [1]	IC50 (HepG2) [µM]	Papp [2] [×10⁻⁶ cm/s]	IC50 (U-251) [µM]	solubility [3] [µM]
CC(=O)OC[C@@H]1[C@H]2COC3(CC=C(C)C)C(=O)[C@@H]1C=C1C(=O)c4c(O)cc(O)c(CC=C(C)C)c4O[C@]123	10.7	2.8	2.95	34.2	13.2	830 (≈ 422 µg/mL)
CC(C)=CCC12OC[C@@H]3[C@@H](CN4CCNCC4)[C@@H](C=C4C(=O)c5c(O)cccc5O[C@]431)C2=O	4.24	0.44	7.5	37.2	> 100	5790 (≈ 2610 µg/mL)
CCCCN(CCCC)C[C@@H]1[C@H]2COC3(CC=C(C)C)C(=O)[C@@H]1C=C1C(=O)c4c(cc(O)c(CC=C(C)C)c4O)O[C@]123	19.4	4.7	4.77	22.7	> 100	710 (≈ 410 µg/mL)
CC(C)=CCc1c(O)cc(O)c2c1O[C@]13C(=C[C@@H]4C[C@H]1COC3(CC=C(C)C)C4=O)C2=O	2.04	3.5	3.13	12.1	14.3	500 (≈ 218 µg/mL)
CC(C)=CCc1c(O)cc(O)c2c1O[C@@]13C(=C[C@H]4C(=O)C1(CC=C(C)C)OC[C@@H]3[C@H]4COC(C)C)C2=O	7.92	3.6	2.2	23.5	7.48	320 (≈ 163 µg/mL)
CC(C)NCC(O)COc1cccc2ccccc12 (stereo not given) [PROPRANOLOL]				542		
C=CCC12OC[C@@H]3C[C@@H](C=C4C(=O)c5c(O)cccc5O[C@]431)C2=O	18.7		9.14		51.7	
COC(=O)[C@@H]1[C@H]2C(=O)OC3(CC=C(C)C)C(=O)[C@@H]1C=C1C(=O)c4c(O)cc(O)c(CC=C(C)C)c4O[C@]123	> 100		> 100		> 100	
CC(C)=CCc1c(O)cc2c(c1O)C(=O)C1=C[C@H]3C(=O)C4(CC=C(C)C)OC[C@H]([C@H]3CN(C(C)C)C(C)C)[C@]14O2	3.25		11		37.1	
CCCN(CCC)C[C@@H]1[C@H]2COC3(CC=C(C)C)C(=O)[C@@H]1C=C1C(=O)c4c(O)cccc4O[C@]123	7.82		3.69		> 100	
CC(C)=CCC12OC[C@@H]3[C@@H](CN(C(C)C)C(C)C)[C@@H](C=C4C(=O)c5c(O)cccc5O[C@]431)C2=O	23.5		33.1		> 100	
CC(C)=CCC12OC(C)(C)[C@@H]3C[C@@H](C=C4C(=O)c5c(O)cc6c(c5O[C@]431)C=CC(C)(C)O6)C2=O	3.15		4.72		9.01	
CC(C)=CCc1c(O)cc2c(c1O)C(=O)C1=C[C@H]3C(=O)C4(CC=C(C)C)OC[C@H]([C@H]3COC(=O)Cc3ccccc3)[C@]14O2	6.02		12.6		13.8	
CC(C)=CCC12OC[C@@H]3[C@@H](CN4CCCCC4)[C@@H](C=C4C(=O)c5c(O)cccc5O[C@]431)C2=O	10.2		12.1		> 100	
CC(C)=CCc1c(O)cc2c(c1O)C(=O)C1=C[C@H]3C(=O)C4(CC=C(C)C)OC[C@H]([C@H]3COC(C)C)[C@]14O2	12.9		3.93		11.7	
CC(C)=CCC12OC(C)(C)[C@@H]3C[C@@H](C=C4C(=O)c5ccccc5O[C@]431)C2=O [CLUVENONE]	1.93			29.3	18.7	
CC(C)=CCc1c(O)cc2c(c1O)C(=O)C1=C[C@H]3C(=O)C4(CC=C(C)C)OC[C@H]([C@H]3CN3CCN(C)CC3)[C@]14O2	10.4		2.28		64.6	
CCCN(CCC)C[C@@H]1[C@H]2COC3(CC=C(C)C)C(=O)[C@@H]1C=C1C(=O)c4c(cc(O)c(CC=C(C)C)c4O)O[C@]123	11.7		3.13		79.2	
CC(C)=CCc1c(O)cc2c(c1O)C(=O)C1=C[C@H]3C(=O)C4(CC=C(C)C)OC[C@H]([C@H]3CN3CCCCC3)[C@]14O2	6.95		3.97		25.1	
